# Measurements reported in patent US7432242B2, “Inhibitors of RGS proteins” (The Regents of the University of Michigan, priority 2002, dated 2008).
# Where a SMILES comes first, the peptide text is derived from it. Bridges are numbered along the chain shown (N, C = ends). Where no end group is shown, it is not given here.
# Tests used:
# RGS4 = RGS4 (Homo sapiens, UniProt P49798); assay: Steady-state GTPase assay, RGS4-stimulated, CHO cell membranes expressing α2a AR; assay type: biochemical; design: key to Activity (inhibitory activity, relative scale): −: —(no inhibition); relative scale from—(no inhibition) to +++; conditions: for IC50: steady-state membrane GTPase assay; for Activity (inhibitory activity, relative scale): inhibition of RGS4-mediated GTPase acceleration
# Chain of RGS4 (P49798 whole entry, species assumed): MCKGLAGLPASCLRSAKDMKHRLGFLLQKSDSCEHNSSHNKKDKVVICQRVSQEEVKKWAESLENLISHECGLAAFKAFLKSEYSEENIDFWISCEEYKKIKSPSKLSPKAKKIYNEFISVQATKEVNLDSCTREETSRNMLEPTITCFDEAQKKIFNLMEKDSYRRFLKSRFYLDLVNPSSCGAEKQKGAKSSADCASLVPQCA
# Procedure: (§1) In some embodiments, the membrane assay comprises a GTPase assay (See e.g, Berman et al., J. Biol. Chem., 271:27209 [1996] and Berman et al., Cell 86:445 [1996]). In such embodiments, α2A adrenergic receptor expressing membranes are pre-incubated with γ-^32P GTP and RGS proteins. In some embodiments, membranes contain both α2A adrenergic receptor and Gαo subunits, allowing measurement of both Gi and Go-coupled RGS proteins. In some embodiments, a steady-state GTPase assay is utilized to assay RGS inhibitors (See e.g., Wise and Milligan, J. Biol. Chem., 272:24673 [1997]).
# This example describes a novel method of assaying for inhibitors of RGS-mediated GTPase Acceleration. A modified version of the [^35S] GTPγS binding method described in Wieland et al., 1994 (Wieland et al., Methods Enzymol. 237:3 [1994]) was utilized, with the exception that an RGS protein was included to enhance the receptor stimulation of GTPγS binding. RGS-mediated enhancement of receptor-stimulated [^35S]GTPγS binding was determined in CHO cell membranes expressing high densities (10-20 pmol/mg) of receptor. The method is not limited to the alpha 2a adrenergic receptor or the CHO membrane described herein. The membrane can be from other cell types and/or expressing other G protein coupled receptors (e.g., including, but not limited to, other Gi coupled receptors).
# The assay buffer was 50 mM Tris, 5 mM MgCl2, 1 mM EDTA, 100 mM NaCl, 1 mM DTT, pH 7.6. The reaction mixture also contained the following components. Some preferred embodiments include at least one of the components marked with an *. • 1. High nanomolar or low micromolar concentrations (typically 1 μM) of GDP.* • 2. 4 μg of Chinese hamster ovary (CHO) membranes expressing the alpha 2a adrenergic receptor (α2AAR) at a receptor density of ˜10-20 pmol/mg. α2AAR-CHO membranes were prepared as previously described (Wade et al., Mol. Pharmacol. 56: 1005 [1999]). Membranes were re-suspended in Tris/MgCl2/EGTA (TME) buffer (50 mM Tris, 10 mM MgCl2, 1 mM EGTA, pH 7.6) and were aliquoted before being frozen in liquid N2 and stored at −80° C. until use. The receptor density in the α2aAR-CHO membranes was determined by [^3H] yohimbine binding and Bradford assay (Bradford, Anal. Biochem. 72: 248 [1976]). • 3. 0.2 nM-50 nM [^35S]GTPγS. A low concentration with respect to the higher concentrations of G protein and GTP utilized is necessary*. • 4. Saturating concentration of agonist for the receptor type utilized. UK 14,304 (10 μM). • 5. RGS proteins at μM or high nM ranges. • 6. GTP at high nM or low μM ranges. This is the most critical component of this method, since the massive GTP hydrolysis accelerated by RGS promotes formation of the empty DRG state which is detected by the low concentration of [^35S]GTPγS.*
# Activity was measured by use of CHO cell membranes expressing the α2a AR at high levels (10-20 pmol/mg) described in Example 1 above.
# Subsequently, a series of constrained peptides (Table 3) was prepared and the inhibitory activity tested. The inhibitory activity is shown in Table 3 as a relative scale from—(no inhibition) to +++.
# RGS8 = target: T1, RGS8 (Homo sapiens, UniProt P57771); assay: Steady-state membrane GTPase assay, RGS8-stimulated; assay type: biochemical
# T1 sequence (P57771 1-180): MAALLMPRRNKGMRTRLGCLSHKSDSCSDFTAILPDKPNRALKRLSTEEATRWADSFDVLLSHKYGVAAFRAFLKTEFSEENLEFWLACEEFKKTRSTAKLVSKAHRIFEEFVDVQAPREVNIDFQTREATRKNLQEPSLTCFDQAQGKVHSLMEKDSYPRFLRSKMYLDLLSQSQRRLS
# Procedure: as §1
# In addition to the inhibitory activity against RGS4 mediated GTPase acceleration, three of the peptides found to be most inhibitory against RGS4 were tested for their ability to inhibit RGS8 stimulated GTPase activity.
IC50 (RGS4),"Activity (inhibitory activity, relative scale) (RGS4)",Compound,also measured
260 µM,,"CC[C@H](C)[C@@H]1NC(=O)CNC(=O)[C@H]([C@@H](C)O)NC(=O)[C@@H](NC(=O)[C@H](CCCCN)NC(=O)[C@@H](NC(C)=O)C(C)C)CCC(=O)NCCCC[C@@H](C(=O)N[C@@H](CCC(=O)O)C(N)=O)NC1=O [YJ14(lactam)] (HELM PEPTIDE1{[ac].V.K.E.T.G.I.K.E.[am]}$PEPTIDE1,PEPTIDE1,4:R3-8:R3$$$V2.0)",IC50 (RGS8): 840 µM
79 µM,,"CC[C@H](C)[C@@H]1NC(=O)CNC(=O)[C@H]([C@@H](C)O)NC(=O)[C@@H](NC(=O)[C@H](CCCCN)NC(=O)[C@@H](NC(C)=O)C(C)C)CSCSC[C@@H](C(=O)N[C@@H](CCC(=O)O)C(N)=O)NC1=O [Yja] (HELM PEPTIDE1{[ac].V.K.C.T.G.I.C.E.[am]}|CHEM1{[C([*:1])[*:2]]}$PEPTIDE1,CHEM1,4:R3-1:R1|PEPTIDE1,CHEM1,8:R3-1:R2$$$V2.0)",
26 µM,,"CC[C@H](C)[C@@H]1NC(=O)CNC(=O)[C@H]([C@@H](C)O)NC(=O)[C@@H](NC(=O)[C@H](CCCCN)NC(=O)[C@@H](NC(C)=O)C(C)C)CSSC[C@@H](C(=O)N[C@@H](CCC(=O)O)C(N)=O)NC1=O [Yjb] (HELM PEPTIDE1{[ac].V.K.C.T.G.I.C.E.[am]}$PEPTIDE1,PEPTIDE1,4:R3-8:R3$$$V2.0)",
,−,YJ5(Et) (KCTSICE; cysteine pairing not given here; also: Et modification),

# Further lines, the compound ahead of its results:
Compound,IC50 (RGS4),"Activity (inhibitory activity, relative scale) (RGS4)",also measured
"CC[C@H](C)[C@@H]1NC(=O)CNC(=O)[C@H]([C@@H](C)O)NC(=O)[C@@H](NC(=O)[C@H](CCCCN)NC(=O)[C@@H](NC(C)=O)C(C)C)CSCCSC[C@@H](C(=O)N[C@@H](CCC(=O)O)C(N)=O)NC1=O [JMRAc(Et)] (HELM PEPTIDE1{[ac].V.K.C.T.G.I.C.E.[am]}|CHEM1{[C(C[*:2])[*:1]]}$PEPTIDE1,CHEM1,4:R3-1:R1|PEPTIDE1,CHEM1,8:R3-1:R2$$$V2.0)",88 µM,,
"CC[C@H](C)[C@@H]1NC(=O)CNC(=O)[C@H]([C@@H](C)O)NC(=O)[C@@H](NC(=O)[C@H](CCCCN)NC(=O)[C@@H](NC(C)=O)C(C)C)CCCNC(=O)CC[C@@H](C(=O)N[C@@H](CCC(=O)O)C(N)=O)NC1=O [YJ13(lactam)] (HELM PEPTIDE1{[ac].V.K.[Orn].T.G.I.E.E.[am]}$PEPTIDE1,PEPTIDE1,4:R3-8:R3$$$V2.0)",25 µM,,IC50 (RGS8): 161 µM
ES2(Et) (VKCTGFCE; cysteine pairing not given here; also: Et modification),,+++,
JO1(Et) (VKCTGICE; cysteine pairing not given here; also: Et modification),,−,
VKTTGIVE,,,Inhibition of RGS-mediated GTPase acceleration (in words) (RGS4; RGS-stimulated GTPase activity): no activity
"YJ4(Et) (VKCTSICE; bridge 3-7; also: Et modification, place not given here, cross-link 3-7: disulfide, thioether or lactam)",,+++,
"YJ6(Et) (VKCTSICE; bridge 3-7; also: Et modification, place not given here, cross-link 3-7: disulfide, thioether or lactam)",,−,
"YJ15(Et) (VKCTGICE; bridge 3-7; also: Et modification, place not given here, cross-link 3-7: disulfide, thioether or lactam)",,−,
